The pEC50 is the negative decadic logarithm of the EC50, by convention in mol/L. Read a high pEC50 as a low EC50.

pEC50: −log10 of the molar value.

One experiment concerns the target T1, Solute carrier family 12 member 5 (Homo sapiens, UniProt Q9H2X9).
T1 sequence (Q9H2X9 whole entry): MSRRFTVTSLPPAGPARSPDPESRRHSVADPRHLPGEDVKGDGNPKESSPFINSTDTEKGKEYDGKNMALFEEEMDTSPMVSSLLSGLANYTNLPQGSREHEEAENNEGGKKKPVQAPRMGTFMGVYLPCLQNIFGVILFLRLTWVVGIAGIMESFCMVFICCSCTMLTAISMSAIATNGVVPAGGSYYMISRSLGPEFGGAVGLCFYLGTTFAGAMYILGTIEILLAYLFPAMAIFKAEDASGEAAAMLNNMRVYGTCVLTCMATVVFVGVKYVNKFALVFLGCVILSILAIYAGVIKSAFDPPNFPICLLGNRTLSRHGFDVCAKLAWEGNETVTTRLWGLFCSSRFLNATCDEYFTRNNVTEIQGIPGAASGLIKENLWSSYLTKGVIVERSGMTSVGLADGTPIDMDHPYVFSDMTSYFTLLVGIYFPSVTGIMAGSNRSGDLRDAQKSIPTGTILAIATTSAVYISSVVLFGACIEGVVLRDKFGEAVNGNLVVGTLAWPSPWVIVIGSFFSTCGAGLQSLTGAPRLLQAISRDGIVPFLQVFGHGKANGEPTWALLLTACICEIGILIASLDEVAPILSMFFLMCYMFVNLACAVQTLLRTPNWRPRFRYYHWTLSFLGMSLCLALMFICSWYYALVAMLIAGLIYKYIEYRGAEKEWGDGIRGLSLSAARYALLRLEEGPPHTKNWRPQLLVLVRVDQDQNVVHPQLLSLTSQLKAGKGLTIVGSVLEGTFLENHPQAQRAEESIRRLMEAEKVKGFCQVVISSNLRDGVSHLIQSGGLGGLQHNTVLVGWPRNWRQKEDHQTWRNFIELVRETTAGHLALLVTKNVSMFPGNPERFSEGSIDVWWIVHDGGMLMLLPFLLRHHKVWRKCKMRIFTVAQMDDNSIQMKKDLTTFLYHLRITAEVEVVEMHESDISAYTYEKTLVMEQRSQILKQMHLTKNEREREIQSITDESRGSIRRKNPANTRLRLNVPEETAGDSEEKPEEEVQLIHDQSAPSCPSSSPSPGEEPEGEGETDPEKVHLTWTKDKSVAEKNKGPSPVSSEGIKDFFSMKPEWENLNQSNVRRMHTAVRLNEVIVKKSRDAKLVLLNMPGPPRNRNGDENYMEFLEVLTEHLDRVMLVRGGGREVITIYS
The experiment in a line: KCC2 modulator potency by thallium flux, dose response, cell-based, HEK293 KCC2, FluoZin-2 fluorescence (AID 1736).
Conditions: not given
Take `Cc1ccc(-c2n[nH]c(=S)n2NC=CCc2ccccc2[N+](=O)[O-])cc1`: the pEC50 is 5.74. The same measure, in the same setting: with `Cc1[nH]c2ccccc2c1Cc1n[nH]c(=S)n1C` the figure was 4.60; with `COc1cc(C=NN(C)c2ccccc2)ccc1O`, 2.00; with `Cc1[nH]c2ccccc2c1Cc1nnc(S)o1`, 5.80.

`O=c1[nH]c2c(s1)C(c1ccccc1)c1c(c(O)n(-c3ccccc3)c1O)S2` (stereo not drawn) showed a pEC50 of 6.99. Consider `O=C(CSc1ccccc1C(=O)NCc1ccccc1)NC12CC3CC(CC(C3)C1)C2`, for which the negative-log EC50 (pEC50) is 5.28.

`CC(C)N1C(=O)S/C(=C/c2ccccc2OCc2ccc(C(=O)O)cc2)C1=O` showed a pEC50 of 3.66. The same measure, in the same setting: for `CC1CCCCN1C(=O)CSc1nnc(-c2c[nH]c3ccccc23)o1` (stereo not drawn) the value was 4.97; for `NC1=NC[C@@H](Cc2ccc(O)cc2)N1CCc1cc(C(F)(F)F)cc(C(F)(F)F)c1`, 5.10.

As to `O=C1OC(c2ccc(O)cc2)(c2ccc(O)cc2)c2ccccc21`, the pEC50 is 5.48. Same read-out and setting: for `O=C(O)c1cc(-c2ccc(F)cc2F)ccc1O` the value was 4.97. Still for that read-out and setting: for `O=C(c1cc2c(s1)-c1ccccc1OC2)N1CCC2(CC1)OCCO2` [1,4-dioxa-8-azaspiro[4.5]decan-8-yl(4H-thieno[3,2-c][1]benzopyran-2-yl)methanone] the value was 4.52. Same read-out and setting: for `O=C(CSc1nnc(C2CC2)n1Cc1ccccc1)c1cc2ccccc2o1` [1-(1-benzofuran-2-yl)-2-[(4-benzyl-5-cyclopropyl-1,2,4-triazol-3-yl)sulfanyl]ethanone] the value was 5.28; for `CC1Cc2ccccc2N1C(=O)CSc1nnc(CNc2ccccc2)o1` (stereo not drawn) [1-(2-Methyl-2,3-dihydro-indol-1-yl)-2-(5-phenylaminomethyl-[1,3,4]oxadiazol-2-ylsulfanyl)-ethanone], 4.73; for `CC1Cc2ccccc2N1C(=O)CSc1nnnn1Cc1ccccc1` (stereo not drawn) [1-(2-methyl-2,3-dihydroindol-1-yl)-2-[[1-(phenylmethyl)-1,2,3,4-tetrazol-5-yl]sulfanyl]ethanone], 5.72.

The compound `C=CCn1c(Cc2cccs2)nnc1SCC(=O)c1ccc2ccccc2c1` [1-(2-naphthalenyl)-2-[[4-prop-2-enyl-5-(thiophen-2-ylmethyl)-1,2,4-triazol-3-yl]thio]ethanone] showed a negative logarithm of the EC50 (pEC50) of 5.30. On the same count and under the same terms, for `O=C(CSc1nnc(-c2ccc(O)cc2)n1Cc1ccco1)N1CCc2ccccc2C1` [1-(3,4-Dihydro-1H-isoquinolin-2-yl)-2-[4-furan-2-ylmethyl-5-(4-hydroxy-phenyl)-4H-[1,2,4]triazol-3-ylsulfanyl]-ethanone] the value was 4.82; for `O=C(CSc1nnc(CNc2ccccc2)o1)N1CCCc2ccccc21` [1-(3,4-Dihydro-2H-quinolin-1-yl)-2-(5-phenylaminomethyl-[1,3,4]oxadiazol-2-ylsulfanyl)-ethanone], 4.46. Still for that read-out and setting: for `Cc1oc(-c2ccccc2)nc1C[S+]([O-])CC(=O)N1CCc2ccccc2C1` (stereo not drawn) [1-(3,4-dihydro-1H-isoquinolin-2-yl)-2-[(5-methyl-2-phenyl-1,3-oxazol-4-yl)methylsulfinyl]ethanone] the value was 5.31.

Still in this experiment, the particulars now being: inactive by the depositor's call.
`CC(C(=O)N=c1sc2ccccc2n1C)N1C(=O)C2CC=CCC2C1=O` (stereo not drawn) had a pEC50 of 3.92. As for `COc1ccc(C(c2nnnn2Cc2cccs2)N2CCN(c3ccccc3F)CC2)cc1` (stereo not drawn) [1-(2-Fluoro-phenyl)-4-[(4-methoxy-phenyl)-(1-thiophen-2-ylmethyl-1H-tetrazol-5-yl)-methyl]-piperazine], the negative logarithm of the EC50 (pEC50) was 4.88. For `COc1cc(C)c(C)cc1S(=O)(=O)N1CCN(Cc2ccccc2)CC1` [1-(2-methoxy-4,5-dimethyl-phenyl)sulfonyl-4-(phenylmethyl)piperazine], the pEC50 is 4.48. The same measure, in the same setting: for `S=C(NCCc1ccccc1)NCc1cccs1` [1-(2-phenylethyl)-3-(thiophen-2-ylmethyl)thiourea] the value was 5.24.

The values above are taken from BindingDB's records for doi:10.7270/Q2Q52N1X (Vanderbilt Screening Center for GPCRs, Ion Channels and …, 2009).
